The values that follow come from publication PMC3530649 (Journal of the American Chemical Society, 2012).

The term Ki denotes a measure of affinity in units of concentration, obtained from inhibition or displacement. Read a high Ki as a looser hold on the target. What is called Km is the concentration of substrate that gives half-maximal velocity.

Series [1] concerns the target T1, (E)-β-farnesene synthase (EBFS) (Mentha x piperita, UniProt O48935).
T1 sequence (O48935 1-550): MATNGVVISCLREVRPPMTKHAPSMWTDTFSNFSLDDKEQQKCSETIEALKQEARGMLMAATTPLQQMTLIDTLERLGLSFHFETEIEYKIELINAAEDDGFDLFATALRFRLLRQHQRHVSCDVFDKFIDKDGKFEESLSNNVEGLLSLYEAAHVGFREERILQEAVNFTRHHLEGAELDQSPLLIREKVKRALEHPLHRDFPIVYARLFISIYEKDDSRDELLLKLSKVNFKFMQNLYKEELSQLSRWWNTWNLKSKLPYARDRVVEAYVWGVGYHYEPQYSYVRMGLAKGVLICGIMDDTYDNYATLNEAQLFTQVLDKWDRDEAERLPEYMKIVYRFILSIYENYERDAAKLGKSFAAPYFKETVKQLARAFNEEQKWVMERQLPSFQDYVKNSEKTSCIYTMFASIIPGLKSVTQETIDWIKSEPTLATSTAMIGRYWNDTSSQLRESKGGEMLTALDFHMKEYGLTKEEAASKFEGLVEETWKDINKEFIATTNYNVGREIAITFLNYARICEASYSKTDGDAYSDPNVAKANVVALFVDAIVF
The series is described as follows: steady-state inhibition, radiometric microassay. The series is classed as biochemical.

Substrate in the series “purified protein”: CC(C)=CCC/C(C)=C/CC/C(C)=C/CO[P@@](=O)(O)OP(=O)(O)O
The series is described as follows: purified protein. Conditions: labelled compound (tritiated).

Substrate in series [2]: C=CC(C)(CC/C=C(\C)CCC=C(C)C)OP(=O)(O)OP(=O)(O)O
Kind of series: steady-state kinetics, radiometric microassay. The series is classed as biochemical, Mentha x piperita. The settings on record: labelled compound ((3RS)-(1Z)-trans-[1-3H1]NDP), racemic.

Substrate in series [3]: CC(C)=CCC/C(C)=C/CC/C(C)=C(\F)COP(=O)(O)OP(=O)(O)O
Kind of series: steady-state kinetics, radiometric microassay. The series is classed as biochemical, Mentha x piperita. The settings on record: labelled compound ((1RS)-2-fluoro[1-3H1]FDP).

In series [1], `CC(C)=CCC/C(C)=C/CC/C(=C/COP(=O)(O)OP(=O)(O)O)C(F)(F)F` [3CF3-3, (6E)-3-trifluoromethylfarnesyl diphosphate] displayed a Ki of 1600 ± 200 nM. For the molecule `CC(C)=CCC/C(C)=C/CC/C(C)=C(\F)COP(=O)(O)OP(=O)(O)O` [2F-3, (2Z,6E)-2-fluorofarnesyl diphosphate], affinity in series [1] was put at a Ki of 1300 ± 100 nM.

`CC(C)=CCC/C(C)=C/CCC(=CCOP(=O)(O)OP(=O)(O)O)CF` [3CH2F-3, (6E)-3-fluoromethylfarnesyl diphosphate]: in series [1], the Ki stood at 2300 ± 200 nM.

B1: (E)-β-farnesene synthase (EBFS) (Mentha x piperita) (protein)
chain: MATNGVVISCLREVRPPMTKHAPSMWTDTFSNFSLDDKEQQKCSETIEALKQEARGMLMAATTPLQQMTLIDTLERLGLSFHFETEIEYKIELINAAEDDGFDLFATALRFRLLRQHQRHVSCDVFDKFIDKDGKFEESLSNNVEGLLSLYEAAHVGFREERILQEAVNFTRHHLEGAELDQSPLLIREKVKRALEHPLHRDFPIVYARLFISIYEKDDSRDELLLKLSKVNFKFMQNLYKEELSQLSRWWNTWNLKSKLPYARDRVVEAYVWGVGYHYEPQYSYVRMGLAKGVLICGIMDDTYDNYATLNEAQLFTQVLDKWDRDEAERLPEYMKIVYRFILSIYENYERDAAKLGKSFAAPYFKETVKQLARAFNEEQKWVMERQLPSFQDYVKNSEKTSCIYTMFASIIPGLKSVTQETIDWIKSEPTLATSTAMIGRYWNDTSSQLRESKGGEMLTALDFHMKEYGLTKEEAASKFEGLVEETWKDINKEFIATTNYNVGREIAITFLNYARICEASYSKTDGDAYSDPNVAKANVVALFVDAIVF
As to B1, the Km in “purified protein” was 1.8 ± 0.2 µM; in series [2], 25.0 ± 4.2 µM; in series [3], 1.6 ± 0.2 µM.
